Assay results as given in US20230181536A1, “ANTICANCER COMBINATION THERAPY WITH N-(1-ACRYLOYL-AZETIDIN-3-YL)-2-((1H-INDAZOL-3-YL)AMINO)METHYL)-1H-IMIDAZOLE-5-CARBOXAMIDE INHIBITOR OF KRAS-G12C” (TAIHO PHARMACEUTICAL CO., LTD., priority 2020, published 2023).
Counter-ions that a name gives are not always drawn.

Legend:
[1] = system: cancer cells with KRAS G12C mutation; settings: WO 2014/152588 and Cancer Discov. 6 (3), 316-29, 2016; cited from earlier work
[2] = molecular target: G12C mutant of inactive KRAS (GDP) (Homo sapiens, UniProt P01116, G12C); settings: WO 2014/152588 and Cancer Discov. 6 (3), 316-29, 2016; cited from earlier work
[3] = molecular target: T1, KRAS G12C (Homo sapiens, UniProt P01116, G12C); assay: Inhibitory activity on the KRAS G12C nucleotide (GDP-GTP) exchange reaction; type: biochemical; settings: Bodipy FL GDP-bound KRAS G12C 25 nM; preincubation at 25° C. for 4 hours; SOS1 100 nM, GppNHp 1 μM, reaction for 30 minutes
T1 construct: KRAS G12C (amino acid region: 1-169)
Procedure, shortened: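 Bodipy FL-GDP-loaded KRAS G12C (aa 1-169, 25 nM) preincubated with compound 4 h at 25 °C in pH 7.5 Tris buffer, 5% DMSO; exchange started with SOS1 (aa 564-1049, 100 nM) and 1 μM GppNHp for 30 min. Fluorescence change (ex 485/em 520 nm) normalized to DMSO and no-GppNHp controls; IC50 calculated.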

[4] = molecular target: T2, G12C K-Ras4B (1-169) (Homo sapiens, UniProt P01116, G12C); assay: Test of compounds to determine whether they bind to KRASG12C (LC-MS compound binding rate); settings: final compound concentration of 2 μM, 1 μM protein, 25° C. for 2 hours
T2 construct: G12C K-Ras4B (1-169)
Description: Test Example 1: A Test of Compounds to Determine Whether they Bind to KRASG12C
Test compounds were prepared in the form of a 10 mM DMSO solution.
Wt K-Ras4B (1-169) and G12C K-Ras4B (1-169) proteins were mixed and diluted with a buffer (1×TBS, 0.1 mM TCEP) to prepare individual 1 μM protein solutions. A 10 mM test compound was diluted tenfold with DMSO to make a 1 mM solution, and then diluted fivefold with DMSO to make a 200 μM solution. The 200 μM solution was further diluted fivefold to make a 40 μM solution. When the final compound concentration was […], 1 μL of a 200 μM test compound was added to 19 μL of a 1 μM protein solution. When the final compound concentration was 2 μM, 1 μL of a 40 μM test compound was added to 19 μL of a 1 μM protein solution. The mixtures were stored in an incubator at 25° C. for 2 hours, and 80 μL of a 1×TBS solution containing 0.2% formic acid was added thereto to end the reaction, followed by LC-MS measurement. LC-MS measurement was performed using Xevo G2-S Q-Tof manufactured by Waters, and reverse-phase chromatography was performed with a desalting column. A mass spectrum of positive ions was obtained by electrospray. For a mass spectrum, a spectrum of a polyvalent ion was collectively converted to a molecular weight by using OpenLynx software by the MaxEnt technique, and a compound binding rate was obtained from the ratio of a signal intensity that corresponds to the molecular weight of a protein to a signal intensity that corresponds to the molecular weight of a compound binding to the protein.
By obtaining the compound binding rate for wt K-Ras4B (1-169) and the compound binding rate for G12C K-Ras4B (1-169) at the same time, information of the selectivity for G12C K-Ras4B (1-169) was obtained at the same time.
The test compounds were measured at their final compound concentration of 2 μM. […] Almost none of the compounds of the disclosure bound to wt K-Ras4B (1-169). The “binding rate” (%) for each of wt K-Ras4B (1-169) and G12C K-Ras4B (1-169) refers to the ratio of the signal intensity of bound forms to the sum of the signal intensity of non-bound forms and the signal intensity of bound forms.

[5] = system: NCI-H358 cells; assay: Growth inhibition activity on KRAS-G12C mutant cell line (NCI-H358) (in vitro); type: cell-based; settings: Homo sapiens, 72 h, 3-day culture in the presence of the compound, CellTiter-Glo2.0
Description: Test Example 3: A Measurement Test of Growth Inhibition Activity on KRAS-G12C Mutant Cell Line (NCI-H358) (In Vitro) NCI-H358 cells (ATCC, Cat#: CRL-5807), which are a KRAS-G12C mutant human lung cancer cell line, were suspended in a 10% fetal bovine serum-containing RPMI1640 medium (manufactured by Fujifilm Wako Pure Chemical Corporation.). The cell suspension was seeded into each well of a 384-well flat-bottom microplate and cultured in an incubator containing 5% CO2 gas at 37° C. for 1 day. The test compound was dissolved in DMSO and diluted with DMSO to give a concentration 500 times the final concentration. The solution of the test compound in DMSO was diluted with the medium used for suspending cells and added to each well of the cell-culture plate to give a DMSO final concentration of 0.2%, followed by culture in an incubator containing 5% CO2 gas at 37° C. for another 3 days. The cell count after 3-day culture in the presence of the compound was measured using CellTiter-Glo2.0 (manufactured by Promega Corporation) in accordance with the protocol recommended by Promega Corporation. The growth inhibition rate was calculated from the following equation, and the concentration of the test compound at which 50% inhibition was achieved (IC50 (nM)) was determined. […] Growth Inhibition Rate (%)=(C−T)/(C)×100 T: the emission intensity in a well into which a test compound was added. C: the emission intensity in a well into which a test compound was not added.

[6] = system: tumor-bearing mice expressing KRAS G12C mutation; settings: WO 2015/054572 and Cell. 172 (3), 578-89, 2018; cited from earlier work

Structure (SMILES)	IC50 [3] [nM]	binding rate for G12C K-Ras4B (1-169) [4]	further results
C=CC(=O)N1CC(N2CCN(C(=O)CNc3cc(C4(C)CC4)c(Cl)cc3O)CC2)C1 [ARS-853]	–	–	apoptosis induction [1]: inducing apoptosis; binding to KRAS G12C [2]: binds to the cysteine of the G12C mutant of inactive KRAS (GDP)
C=CC(=O)N1CC(NC(=O)c2cnc(CNc3n[nH]c4cc(Cl)c(Br)cc34)n2C)C1 [Reference Example 1, N-(1-acryloylazetidin-3-yl)-2-(((5-bromo-6-chloro-1H-indazol-3-yl)amino)methyl)-1-methyl-1H-imidazole-5-carboxamide, reference compound]	> 10000	E (a binding rate of less than 20% is rated “E.”)	IC50 [5]: > 10000 nM
C=CC(=O)N1CC(NC(=O)c2c(-c3ccccc3)nc(CNc3n[nH]c4cc(Cl)c(C(C)(C)C)cc34)n2C)C1 [Reference Example 3, N-(1-acryloylazetidin-3-yl)-2-(((5-(tert-butyl)-6-chloro-1H-indazol-3-yl)amino)methyl)-1-methyl-4-phenyl-1H-imidazole-5-carboxamide, reference compound]	> 10000	E (a binding rate of less than 20% is rated “E.”)	–
C=CC(=O)N1CC(NC(=O)c2c(Cl)nc(CNc3n[nH]c4cc(Cl)c(C(C)(C)C)cc34)n2[C@H]2CCN(CC(F)F)C2)C1 [Example 115, (S)-N-(1-acryloylazetidin-3-yl)-2-(((5-(tert-butyl)-6-chloro-1H-indazol-3-yl)amino)methyl)-4-chloro-1-(1-(2,2-difluoroethyl)pyrrolidin-3-yl)-1H-imidazole-5-carboxamide]	7	–	IC50 [5]: 56 nM
C=CC(=O)N1CCN(c2ncnc3c(F)c(-c4c(O)cccc4F)c(Cl)cc23)CC1 [ARS-1620]	–	–	antitumor action [6]: exerts antitumor action
C=CC(=O)N1CC(NC(=O)c2c(C(F)F)nc(CNc3n[nH]c4cc(Cl)c(C(C)(C)C)cc34)n2C2CCN(C(C)C)C2)C1 (centres unmarked) [Example 93, N-(1-acryloylazetidin-3-yl)-2-(((5-(tert-butyl)-6-chloro-1H-indazol-3-yl)amino)methyl)-4-(difluoromethyl)-1-(1-isopropylpyrrolidin-3-yl)-1H-imidazole-5-carboxamide formate]	6	A (a binding rate of 80% or more is rated “A,”)	–
C=CC(=O)N1CC(NC(=O)c2c(Cl)nc(CNc3n[nH]c4cc(Cl)c(C(C)(C)C)cc34)n2[C@@H]2CCN(CC(F)F)C2)C1 [Example 113, (R)-N-(1-acryloylazetidin-3-yl)-2-(((5-(tert-butyl)-6-chloro-1H-indazol-3-yl)amino)methyl)-4-chloro-1-(1-(2,2-difluoroethyl)pyrrolidin-3-yl)-1H-imidazole-5-carboxamide]	5	–	IC50 [5]: 22 nM
C=CC(=O)N1CC(NC(=O)c2ccc(CNc3n[nH]c4cc(Cl)c(C(C)(C)C)cc34)o2)C1 [Reference Example 2, N-(1-acryloylazetidin-3-yl)-5-(((5-(tert-butyl)-6-chloro-1H-indazol-3-yl)amino)methyl)furan-2-carboxamide, reference compound]	> 10000	E (a binding rate of less than 20% is rated “E.”)	–
C=CC(=O)N1CC(NC(=O)c2c(Cl)nc(CNc3n[nH]c4cc(Cl)c(C(C)(C)C)cc34)n2C2CC=CC2)C1 [Example 98, N-(1-acryloylazetidin-3-yl)-2-(((5-(tert-butyl)-6-chloro-1H-indazol-3-yl)amino)methyl)-4-chloro-1-(cyclopent-3-en-1-yl)-1H-imidazole-5-carboxamide]	7	–	–

Now from value to compound, other results behind:

IC50 [3] [nM]	Structure (SMILES)	binding rate for G12C K-Ras4B (1-169) [4]	further results
38	C=CC(=O)N1C[C@@H](NC(=O)c2c(C)nc(CNc3n[nH]c4cc(Cl)c(C(C)(C)C)cc34)n2C)[C@H]1C (relative stereo) [Example 52, N-((2R *, 3R*)-1-acryloyl-2-methylazetidin-3-yl)-2-(((5-(tert-butyl)-6-chloro-1H-indazol-3-yl)amino)methyl)-1,4-dimethyl-1H-imidazole-5-carboxamide]	B (a binding rate of 60% or more and less than 80% is rated “B,”)	–
1730	C=CC(=O)N1CCC(NC(=O)c2c(C)nc(CNc3n[nH]c4cc(Cl)c(C(C)(C)C)cc34)n2C)CC1 [Example 47, N-(1-acryloylpiperidin-4-yl)-2-(((5-(tert-butyl)-6-chloro-1H-indazol-3-yl)amino)methyl)-1,4-dimethyl-1H-imidazole-5-carboxamide]	–	–
31	C=CC(=O)N1CC(NC(=O)c2c(C)nc(CNc3n[nH]c4cc(Cl)c(C(C)(C)C)cc34)n2C(C)CC)C1 (centres unmarked) [Example 20, N-(1-acryloylazetidin-3-yl)-1-(sec-butyl)-2-(((5-(tert-butyl)-6-chloro-1H-indazol-3-yl)amino)methyl)-4-methyl-1H-imidazole-5-carboxamide]	–	–
52	C=CC(=O)N1CC[C@@H](NC(=O)c2c(Cl)nc(CNc3n[nH]c4cc(Cl)c(C(C)(C)C)cc34)n2C)C1 [Example 73, (R)-N-(1-acryloylpyrrolidin-3-yl)-2-(((5-(tert-butyl)-6-chloro-1H-indazol-3-yl)amino)methyl)-4-chloro-1-methyl-1H-imidazole-5-carboxamide]	–	–
4	C=CC(=O)N1CC(NC(=O)c2c(C(F)F)nc(CNc3n[nH]c4cc(Cl)c(C(C)(C)C)cc34)n2C2CCN(C(C)=O)C2)C1 (centres unmarked) [Example 96, 1-(1-Acetylpyrrolidin-3-yl)-N-(1-acryloylazetidin-3-yl)-2-(((5-(tert-butyl)-6-chloro-1H-indazol-3-yl)amino)methyl)-4-(difluoromethyl)-1H-imidazole-5-carboxamide]	–	–
